Our source for the T/C values is PubChem BioAssay AID220 (DTP/NCI, 2004).

This assay deals with CD8F1 mice, subcutaneous mammary adenocarcinoma, T/C%. Put plainly: NCI In Vivo Anticancer Drug Screen. Data for tumor model Mammary Adenocarcinoma CD8F1 (subcutaneous) in CD8F1. The settings on record: higher = larger tumour. The procedure, abridged:
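Compound-treated versus vehicle-treated mice with transplantable tumors; survival or tumor size compared as T/C.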

Setting [1] is: endpoint: median tumor weight change, dose: 31.25 mg/kg/injection, schedule: Q01DX001 (ip), vehicle: saline with Tween-80.
Where [2] appears, read: endpoint: median tumor weight change, dose: 62.5 mg/kg/injection, schedule: Q01DX001 (ip), vehicle: saline with Tween-80.
[3] abbreviates: endpoint: median tumor weight change, dose: 125.0 mg/kg/injection, schedule: Q01DX001 (ip), vehicle: saline with Tween-80.
[4] abbreviates: endpoint: median tumor weight change, dose: 250.0 mg/kg/injection, schedule: Q01DX001 (ip), vehicle: saline with Tween-80.
Where [5] appears, read: endpoint: median tumor weight change, dose: 500.0 mg/kg/injection, schedule: Q01DX001 (ip), vehicle: saline with Tween-80.

Values joined by “and” are separate entries in the source; they are usually repeats but may differ in a detail not shown here. Equal values may be shown once. Records with an inconclusive call do not appear.

Take `CC(C)NC(=O)OCc1c(COC(=O)NC(C)C)c(-c2ccc(Cl)c(Cl)c2)n2c1CCC2`: the T/C by setting is: (endpoint: median tumor weight (est.), dose: 12.5 mg/kg/injection, schedule: Q07DX005 (ip), vehicle: distilled water + Tween-80) 67 % of control; (endpoint: median tumor weight (est.), dose: 25.0 mg/kg/injection, schedule: Q07DX005 (ip), vehicle: distilled water + Tween-80) 120 % of control; (endpoint: median tumor weight (est.), dose: 50.0 mg/kg/injection, schedule: Q07DX005 (ip), vehicle: distilled water + Tween-80) 21 % of control; (endpoint: median tumor weight (est.), dose: 100.0 mg/kg/injection, schedule: Q07DX005 (ip), vehicle: distilled water + Tween-80) 6 % of control.

Turning to `NC(=O)c1cn(C2OC(CO)C(O)C2O)c2ncnc(N)c12` (centres undefined), the T/C is 63 % of control (endpoint: median tumor weight (est.), dose: 1.0 mg/kg/injection, schedule: Q07DX005 (ip), vehicle: suspension in saline); 27 % of control and 45 % of control (endpoint: median tumor weight (est.), dose: 2.0 mg/kg/injection, schedule: Q07DX005 (ip), vehicle: suspension in saline); 121 % of control (endpoint: median tumor weight change, dose: 0.25 mg/kg/injection, schedule: Q01DX001 (ip), vehicle: saline); 91 % of control (endpoint: median tumor weight change, dose: 0.5 mg/kg/injection, schedule: Q01DX001 (ip), vehicle: saline); 81 % of control (endpoint: median tumor weight change, dose: 1.0 mg/kg/injection, schedule: Q01DX001 (ip), vehicle: saline); 88 % of control (endpoint: median tumor weight change, dose: 1.25 mg/kg/injection, schedule: Q01DX001 (ip), vehicle: suspension in saline). Also, the T/C (endpoint: median tumor weight change, dose: 2.0 mg/kg/injection, schedule: Q01DX001 (ip), vehicle: saline) was 107 % of control; the T/C (endpoint: median tumor weight change, dose: 2.5 mg/kg/injection, schedule: Q01DX001 (ip), vehicle: suspension in saline) was 102 % of control; the T/C (endpoint: median tumor weight change, dose: 4.0 mg/kg/injection, schedule: Q01DX001 (ip), vehicle: saline) was 95 % of control; the T/C (endpoint: median tumor weight change, dose: 5.0 mg/kg/injection, schedule: Q01DX001 (ip), vehicle: suspension in saline) was 70 % of control; the T/C (endpoint: median tumor weight change, dose: 8.0 mg/kg/injection, schedule: Q01DX001 (ip), vehicle: saline) was 79 % of control.

For `COC1=C(N)C(=O)c2nc(-c3nc(C(=O)O)c(C)c(-c4ccc(OC)c(OC)c4O)c3N)ccc2C1=O`, the T/C (endpoint: median tumor weight (est.), dose: 0.1 mg/kg/injection, schedule: Q07DX005 (ip), vehicle: Klucel (hydroxypropylcellulose) (HPC)) was 69 % of control; the T/C (endpoint: median tumor weight (est.), dose: 0.1 mg/kg/injection, schedule: Q07DX005 (ip), vehicle: saline) was 16 % of control and 34 % of control; the T/C (endpoint: median tumor weight (est.), dose: 0.12 mg/kg/injection, schedule: Q07DX005 (ip), vehicle: Klucel (hydroxypropylcellulose) (HPC)) was 10 % of control; the T/C (endpoint: median tumor weight (est.), dose: 0.2 mg/kg/injection, schedule: Q07DX005 (ip), vehicle: Klucel (hydroxypropylcellulose) (HPC)) is 12 % of control; the T/C (endpoint: median tumor weight (est.), dose: 0.2 mg/kg/injection, schedule: Q07DX005 (ip), vehicle: saline) is 11 % of control and 20 % of control; the T/C (endpoint: median tumor weight (est.), dose: 0.4 mg/kg/injection, schedule: Q07DX005 (ip), vehicle: Klucel (hydroxypropylcellulose) (HPC)) is 7 % of control. The T/C is 3 % of control (endpoint: median tumor weight (est.), dose: 0.4 mg/kg/injection, schedule: Q07DX005 (ip), vehicle: saline); 32 % of control and 41 % of control (endpoint: median tumor weight change, dose: 0.5 mg/kg/injection, schedule: Q01DX001 (ip), vehicle: Klucel (hydroxypropylcellulose) (HPC)).

Regarding `COc1cc2cc(c1Cl)N(C)C(=O)CC(OC(=O)C(C)N(C)C(=O)C(C)C)C1(C)OC1C(C)C1CC(O)(NC(=O)O1)C(OC)/C=C/C=C(C)C2OC` (centres undefined), the T/C runs as follows: (endpoint: median tumor weight change, dose: 16.0 micrograms/kg/injection, schedule: Q01DX001 (ip), vehicle: Klucel (hydroxypropylcellulose) (HPC)) 73 % of control; (endpoint: median tumor weight change, dose: 32.0 micrograms/kg/injection, schedule: Q01DX001 (ip), vehicle: Klucel (hydroxypropylcellulose) (HPC)) 124 % of control; (endpoint: median tumor weight change, dose: 64.0 micrograms/kg/injection, schedule: Q01DX001 (ip), vehicle: Klucel (hydroxypropylcellulose) (HPC)) 82 % of control; (endpoint: median tumor weight change, dose: 128.0 micrograms/kg/injection, schedule: Q01DX001 (ip), vehicle: Klucel (hydroxypropylcellulose) (HPC)) 80 % of control; (endpoint: median tumor weight change, dose: 256.0 micrograms/kg/injection, schedule: Q01DX001 (ip), vehicle: Klucel (hydroxypropylcellulose) (HPC)) 64 % of control.

On to `O=C(NO)c1cc(O)c(O)c(O)c1`, for which the T/C was 124 % of control (endpoint: median tumor weight change, dose: 300.0 mg/kg/injection, schedule: Q01DX001 (ip), vehicle: water) and 78 % of control (endpoint: median tumor weight change, dose: 600.0 mg/kg/injection, schedule: Q01DX001 (ip), vehicle: water).

For `NC(=S)Nc1cccc2ccccc12`, the T/C was 58 % of control under setting [1] and 80 % of control under setting [2].

With `COC12C(COC(=O)NCCO)C3=C(C(=O)C(C)=C(N)C3=O)N1CC1NC12` (centres undefined), the T/C runs as follows: (endpoint: median tumor weight change, dose: 12.5 mg/kg/injection, schedule: Q01DX001 (ip), vehicle: Klucel (hydroxypropylcellulose) (HPC)) 77 % of control; (endpoint: median tumor weight change, dose: 25.0 mg/kg/injection, schedule: Q01DX001 (ip), vehicle: Klucel (hydroxypropylcellulose) (HPC)) 78 % of control; (endpoint: median tumor weight change, dose: 50.0 mg/kg/injection, schedule: Q01DX001 (ip), vehicle: Klucel (hydroxypropylcellulose) (HPC)) 33 % of control; (endpoint: median tumor weight change, dose: 100.0 mg/kg/injection, schedule: Q01DX001 (ip), vehicle: Klucel (hydroxypropylcellulose) (HPC)) -64 % of control.

As for `C(CSC1=NCCN1)CSC1=NCCN1`, the T/C runs as follows: (endpoint: median tumor weight (est.), dose: 12.5 mg/kg/injection, schedule: Q07DX005 (ip), vehicle: saline) 98 % of control; (endpoint: median tumor weight (est.), dose: 25.0 mg/kg/injection, schedule: Q07DX005 (ip), vehicle: saline) 103 % of control; (endpoint: median tumor weight (est.), dose: 50.0 mg/kg/injection, schedule: Q07DX005 (ip), vehicle: saline) 76 % of control; (endpoint: median tumor weight (est.), dose: 100.0 mg/kg/injection, schedule: Q07DX005 (ip), vehicle: saline) 102 % of control; (endpoint: median tumor weight (est.), dose: 200.0 mg/kg/injection, schedule: Q07DX005 (ip), vehicle: saline) 69 % of control.

As for `CCCCCCCCCCCCCC#CC(=O)O`, the T/C was 75 % of control and 95 % of control under setting [2]; 68 % of control and 81 % of control under setting [3]; 72 % of control under setting [4]; 78 % of control under setting [5].

For the molecule `Nc1nc(-c2ccccc2)c(Br)c(=O)[nH]1`, the T/C runs as follows: under setting [3], 115 % of control; under setting [4], 96 % of control; under setting [5], 93 % of control; (endpoint: median tumor weight change, dose: 1000.0 mg/kg/injection, schedule: Q01DX001 (ip), vehicle: saline with Tween-80) 98 % of control.

As for `Nc1ccc(S(=O)(=O)c2ccc(N)cc2)cc1`, the T/C under setting [1] is 106 % of control; the T/C under setting [2] is 92 % of control; the T/C under setting [3] was 87 % of control; the T/C under setting [4] is 88 % of control; the T/C under setting [5] was 80 % of control.

With `C=C1C(=O)OCC2C(C(=O)O)=CC3C(C)C(C)=CC123` (centres undefined), the T/C is, setting by setting: (endpoint: median tumor weight (est.), dose: 10.0 mg/kg/injection, schedule: Q07DX005 (ip), vehicle: Klucel (hydroxypropylcellulose) (HPC)) 101 % of control; (endpoint: median tumor weight (est.), dose: 20.0 mg/kg/injection, schedule: Q07DX005 (ip), vehicle: Klucel (hydroxypropylcellulose) (HPC)) 95 % of control and 105 % of control; (endpoint: median tumor weight (est.), dose: 40.0 mg/kg/injection, schedule: Q07DX005 (ip), vehicle: Klucel (hydroxypropylcellulose) (HPC)) 100 % of control and 114 % of control; (endpoint: median tumor weight (est.), dose: 80.0 mg/kg/injection, schedule: Q07DX005 (ip), vehicle: Klucel (hydroxypropylcellulose) (HPC)) 75 % of control and 85 % of control; (endpoint: median tumor weight (est.), dose: 160.0 mg/kg/injection, schedule: Q07DX005 (ip), vehicle: Klucel (hydroxypropylcellulose) (HPC)) 101 % of control.
